These results are taken from patent US9839642B2, “Beta-tetrazolyl-propionic acids as metallo-beta-lactamase inhibitors” (priority 2014, dated 2017).

SMILES strings stand for the structures.

For one assay, the target named is IMP-1 (Serratia marcescens, UniProt P52699). Description: Enzyme activity: determination of IC50, fluorescence assay with CCF2-FA substrate. Format: biochemical. To be noted: enzyme 2 pM, CCF2-FA 1.25 μM, 2 hours at 25° C.; read-out: IMP1 IC50. The essentials:
(§1)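 Enzyme at 1 pM (NDM-1), 2 pM (IMP-1) or 30 pM (VIM-1) was incubated with inhibitor (20 μM to 0.00063 μM) and 1.25 μM CCF2-FA in 100 mM KH2PO4 pH 7, 0.005% Tween-20, 10 μM ZnSO4 for 2 hours at 25° C. Fluorescence was read at ex 405/em 460 nm; IC50 from 4-parameter fit.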

A further assay addresses VIM-1 (Pseudomonas aeruginosa, UniProt A0A0F7KYQ8). The assay is described as above. In kind it is biochemical. Conditions: enzyme 30 pM, CCF2-FA 1.25 μM, 2 hours at 25° C.; read-out: VIM1 IC50. The essentials:
as §1

The target of the next assay is NDM-1 (Klebsiella pneumoniae, UniProt C7C422). The description is as above. Format: biochemical. To be noted: enzyme 1 pM, CCF2-FA 1.25 μM, 2 hours at 25° C.; read-out: NDM1 IC50. The essentials:
as §1

For assay [1], the system named is Escherichia coli expressing NDM-1 (CLB30016). The assay can be described thus: Antibiotic potentiation activity: synergistic concentration (MITC95) with imipenem, growth by OD600. Format: cell-based. Conditions: 95% inhibition of bacterial growth, strain CLB30016. The essentials:
(§2)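 Colonies from overnight agar plates (35 °C) were suspended in saline and diluted 1:100 into 1.1× CAMHB. Inhibitor (final 200 μM to 0.195 μM) was combined with imipenem at 1 or 4 μg/ml, incubated 22–24 h at 35 °C, and absorbance read; MITC95 is the lowest inhibitor concentration giving 95% growth inhibition.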

The subject of assay [2] is Serratia marcescens expressing IMP-1 (CL5741). The description is as above. In kind it is cell-based. To be noted: 95% inhibition of bacterial growth, strain CL5741. The essentials: as §2
For assay [3], the system named is Klebsiella pneumoniae expressing VIM-1 (IHMA599644). The assay is described as above. In kind it is cell-based. Conditions: 95% inhibition of bacterial growth, strain IHMA599644. The procedure, abridged:
as §2

Sequence of IMP-1 (P52699 19-246, looked up, species assumed): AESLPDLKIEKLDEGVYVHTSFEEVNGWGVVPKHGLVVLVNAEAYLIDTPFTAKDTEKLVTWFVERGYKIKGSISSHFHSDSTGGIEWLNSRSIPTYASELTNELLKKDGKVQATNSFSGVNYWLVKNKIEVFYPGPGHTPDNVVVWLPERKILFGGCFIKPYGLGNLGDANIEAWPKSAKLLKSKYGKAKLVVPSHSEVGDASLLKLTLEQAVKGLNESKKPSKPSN
Sequence of NDM-1 (C7C422 29-270, looked up, species assumed): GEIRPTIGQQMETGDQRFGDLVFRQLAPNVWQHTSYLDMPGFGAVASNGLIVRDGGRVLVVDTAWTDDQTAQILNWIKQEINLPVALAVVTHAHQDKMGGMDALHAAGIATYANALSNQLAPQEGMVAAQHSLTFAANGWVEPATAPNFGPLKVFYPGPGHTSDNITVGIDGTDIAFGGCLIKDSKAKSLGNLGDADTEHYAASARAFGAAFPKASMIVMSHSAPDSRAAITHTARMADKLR

In general, IC50 refers to the concentration that gives 50% inhibition. Regarding `CC(C)[C@H](C(=O)O)[C@H](Cc1ccccc1C1=CCNC1)c1nnn[nH]1` [Example 70, (2S,3S)-4-(2-(2,5-dihydro-1H-pyrrol-3-yl)phenyl)-2-isopropyl-3-(1H-tetrazol-5-yl)butanoic acid], the IC50 was greater than 20000 nM on IMP-1, 240 nM on VIM-1 and 180 nM at NDM-1. Moreover, the “NDM1 EC30016 MITC95” value in assay [1] stood at 12.5 µM. In addition, the “IMP1 SM5741 MITC95” value in assay [2] is greater than 200 µM. Besides, the “VIM1 KP599644 MITC95” value in assay [3] is 50 µM.
Take `Nc1ccc(-c2ccc(C[C@H](c3nnn[nH]3)[C@@H](C(=O)O)C3CCCC3)cc2)cn1` [Example 72, (2S,3S)-4-(4-(6-aminopyridin-3-yl)phenyl)-2-cyclopentyl-3-(1H-tetrazol-5-yl)butanoic acid]: the IC50 on IMP-1 was determined as 19 nM; at VIM-1, 3.8 nM; on NDM-1, 5.6 nM. The “NDM1 EC30016 MITC95” value in assay [1] was 6.2 µM. In assay [2], the “IMP1 SM5741 MITC95” value amounted to 0.39 µM. For the same compound, the “VIM1 KP599644 MITC95” value in assay [3] is 12.5 µM.
Consider `CC(C)[C@H](C(=O)O)[C@H](Cc1ccc(-c2ccc(N)nc2)cc1)c1nnn[nH]1` [Example 73, (2S,3S)-4-(4-(6-aminopyridin-3-yl)phenyl)-2-isopropyl-3-(1H-tetrazol-5-yl)butanoic acid], for which the IC50 on IMP-1 is 40 nM; on VIM-1, 7.1 nM; at NDM-1, 4.4 nM. Moreover, the “NDM1 EC30016 MITC95” value in assay [1] stood at 18.8 µM. The “IMP1 SM5741 MITC95” value in assay [2] came to 1.2 µM. Besides, the “VIM1 KP599644 MITC95” value in assay [3] is 37.5 µM.
As to `CC(C)[C@H](C(=O)O)[C@H](Cc1ccc(-c2ccc(CN)cc2)cc1)c1nnn[nH]1` [Example 74, (2S,3S)-4-(4′-(aminomethyl)-[1,1′-biphenyl]-4-yl)-2-isopropyl-3-(1H-tetrazol-5-yl)butanoic acid], the IC50 was 110 nM on IMP-1, 18 nM on VIM-1 and 34 nM on NDM-1. In addition, the “NDM1 EC30016 MITC95” value in assay [1] turned out to be 3.1 µM. In assay [2], the “IMP1 SM5741 MITC95” value came out at 1.6 µM. For the same compound, the “VIM1 KP599644 MITC95” value in assay [3] was 12.5 µM.
With `NCc1ccc(-c2ccc(C[C@H](c3nnn[nH]3)[C@@H](C(=O)O)C3CCCC3)cc2)cc1` [Example 75, (2S,3S)-4-(4′-(aminomethyl)-[1,1′-biphenyl]-4-yl)-2-cyclopentyl-3-(1H-tetrazol-5-yl)butanoic acid], the IC50 at IMP-1 is 36 nM; at VIM-1 it was 4.3 nM; at NDM-1, 25 nM. The “NDM1 EC30016 MITC95” value in assay [1] was determined as 3.1 µM. Also, the “IMP1 SM5741 MITC95” value in assay [2] is 0.78 µM. Further, in assay [3], the “VIM1 KP599644 MITC95” value is 9.4 µM.
`CC(C)[C@H](C(=O)O)[C@H](Cc1ccc(-c2ccc3c(c2)CNC3)nc1)c1nnn[nH]1` [Example 76, (2S,3S)-4-(6-(isoindolin-5-yl)pyridin-3-yl)-2-isopropyl-3-(1H-tetrazol-5-yl)butanoic acid]: the IC50 was determined as 2600 nM at IMP-1, 18 nM at VIM-1 and 120 nM at NDM-1. In addition, the “NDM1 EC30016 MITC95” value in assay [1] amounted to 9.4 µM. Moreover, the “IMP1 SM5741 MITC95” value in assay [2] is 37.5 µM. Further, in assay [3], the “VIM1 KP599644 MITC95” value amounted to 18.8 µM.
Take `CC(C)[C@H](C(=O)O)[C@H](Cc1ccc(-c2cnc(NCCO)nc2)cc1)c1nnn[nH]1` [Example 77, (2S,3S)-4-(4-(2-((2-hydroxyethyl)amino)pyrimidin-5-yl)phenyl)-2-isopropyl-3-(1H-tetrazol-5-yl)butanoic acid]: the IC50 was 99 nM on IMP-1, 5.7 nM on VIM-1 and 6.1 nM at NDM-1. The “NDM1 EC30016 MITC95” value in assay [1] came out at 6.2 µM. Moreover, the “IMP1 SM5741 MITC95” value in assay [2] came out at 4.7 µM. In assay [3], the “VIM1 KP599644 MITC95” value worked out at 50 µM.
Regarding `CC(C)[C@H](C(=O)O)[C@H](Cc1ccc(C2CCNC2)cc1)c1nnn[nH]1` (stereo partly drawn) [Example 78, (2S,3S)-2-isopropyl-4-(4-(pyrrolidin-3-yl)phenyl)-3-(1H-tetrazol-5-yl)butanoic acid], the IC50 was 460 nM on IMP-1, 4.5 nM on VIM-1 and 23 nM at NDM-1. Further, in assay [1], the “NDM1 EC30016 MITC95” value turned out to be 3.1 µM. Moreover, in assay [2], the “IMP1 SM5741 MITC95” value is 6.2 µM. Further, in assay [3], the “VIM1 KP599644 MITC95” value worked out at 6.2 µM.
Regarding `O=C(O)[C@@H](C1CCCC1)[C@H](Cc1ccc(C2CCNC2)cc1)c1nnn[nH]1` (stereo partly drawn) [Example 79, 3-(4-((2S,3S)-3-carboxy-3-cyclopentyl-2-(1H-tetrazol-5-yl)propyl)phenyl)pyrrolidin-1-ium], the IC50 at IMP-1 stood at 190 nM; on VIM-1 it was 2.3 nM; at NDM-1, 24 nM. The “NDM1 EC30016 MITC95” value in assay [1] was determined as 3.1 µM. In assay [2], the “IMP1 SM5741 MITC95” value came to 4.7 µM. The “VIM1 KP599644 MITC95” value in assay [3] amounted to 6.2 µM.
On to `O=C(O)[C@@H](C1CCCC1)[C@H](Cc1ccc(C2CCNCC2)cc1)c1nnn[nH]1` [Example 80, 4-(4-((2S,3S)-3-carboxy-3-cyclopentyl-2-(1H-tetrazol-5-yl)propyl)phenyl)piperidine], for which the IC50 is 73 nM at IMP-1, 2.2 nM at VIM-1 and 17 nM at NDM-1. Moreover, the “NDM1 EC30016 MITC95” value in assay [1] is 6.2 µM. Further, the “IMP1 SM5741 MITC95” value in assay [2] was determined as 1.6 µM. Further, in assay [3], the “VIM1 KP599644 MITC95” value is 9.4 µM.
Regarding `CC[C@H](C)[C@H](C(=O)O)[C@H](Cc1ccc(C2CCNC2)cc1)c1nnn[nH]1` (stereo partly drawn) [Example 81, (2S,3S)-3-methyl-2-((1S)-2-(4-(pyrrolidin-3-yl)phenyl)-1-(1H-tetrazol-5-yl)ethyl)pentanoic acid], the IC50 on IMP-1 stood at 65 nM; on VIM-1, 4.4 nM; on NDM-1, 46 nM. For the same compound, the “NDM1 EC30016 MITC95” value in assay [1] was found to be 2.3 µM. Besides, the “IMP1 SM5741 MITC95” value in assay [2] came to 2.3 µM. Besides, the “VIM1 KP599644 MITC95” value in assay [3] came out at 6.2 µM.
As for `CCC[C@H](C(=O)O)[C@H](Cc1ccc(C#N)cn1)c1nnn[nH]1` [Example 84, (2S)-2-[(1S)-2-(5-cyanopyridin-2-yl)-1-(1H-tetrazol-5-yl)ethyl]pentanoic acid], the IC50 was greater than 20000 nM on IMP-1, 47 nM on VIM-1 and 1200 nM at NDM-1. In addition, the “NDM1 EC30016 MITC95” value in assay [1] came out at 18.8 µM. The “IMP1 SM5741 MITC95” value in assay [2] was greater than 200 µM. Further, the “VIM1 KP599644 MITC95” value in assay [3] was 50 µM.
As for `CCC[C@H](C(=O)O)[C@H](Cc1ccc(C)nc1)c1nnn[nH]1` [Example 85, (2S)-2-[(1S)-2-(6-methylpyridin-3-yl)-1-(1H-tetrazol-5-yl)ethyl]pentanoic acid], the IC50 was 6500 nM at IMP-1, 6.2 nM at VIM-1 and 250 nM on NDM-1. Moreover, in assay [1], the “NDM1 EC30016 MITC95” value amounted to 0.78 µM. In addition, in assay [2], the “IMP1 SM5741 MITC95” value was determined as 100 µM. Also, the “VIM1 KP599644 MITC95” value in assay [3] is 18.8 µM.
As to `CCC[C@H](C(=O)O)[C@H](Cc1ccc(S(=O)(=O)C2CC2)nc1)c1nnn[nH]1` [Example 86, (2S)-2-[(1S)-2-[6-(cyclopropylsulfonyl)pyridin-3-yl]-1-(1H-tetrazol-5-yl)ethyl]pentanoic acid], the figures for the half-inhibitory concentration (IC50) on IMP-1, on VIM-1 and on NDM-1 were 3300 nM, 11 nM and 130 nM, respectively. The “NDM1 EC30016 MITC95” value in assay [1] is 50 µM. For the same compound, in assay [2], the “IMP1 SM5741 MITC95” value came to 125 µM. In addition, in assay [3], the “VIM1 KP599644 MITC95” value is 100 µM.
For `CCC[C@H](C(=O)O)[C@H](Cc1cccnc1Cl)c1nnn[nH]1` [Example 87, (2S)-2-[(1S)-2-(2-chloropyridin-3-yl)-1-(1H-tetrazol-5-yl)ethyl]pentanoic acid], the figures for the IC50 on IMP-1, at VIM-1 and at NDM-1 were 6600 nM, 2.3 nM and 300 nM, respectively. For the same compound, the “NDM1 EC30016 MITC95” value in assay [1] was 12.5 µM. Also, the “IMP1 SM5741 MITC95” value in assay [2] was greater than 200 µM. Besides, the “VIM1 KP599644 MITC95” value in assay [3] was determined as 25 µM.
For `CCC[C@H](C(=O)O)[C@H](Cc1ccncc1)c1nnn[nH]1` [Example 88, (2S)-2-[(1S)-2-pyridin-4-yl-1-(1H-tetrazol-5-yl)ethyl]pentanoic acid], the IC50 on IMP-1 turned out to be 2000 nM; on VIM-1, 5.6 nM; on NDM-1, 180 nM. The “NDM1 EC30016 MITC95” value in assay [1] turned out to be 0.78 µM. In addition, the “IMP1 SM5741 MITC95” value in assay [2] is 37.5 µM. The “VIM1 KP599644 MITC95” value in assay [3] was found to be 6.2 µM.
Take `CC(C)[C@H](C(=O)O)[C@H](CC1CCNCC1)c1nnn[nH]1` [Example 89, (2S,3S)-2-isopropyl-4-(piperidin-4-yl)-3-(1H-tetrazol-5-yl)butanoic acid]: the figures for the IC50 at IMP-1, on VIM-1 and on NDM-1 were greater than 20000 nM, 2100 nM and 18000 nM, respectively. Also, in assay [1], the “NDM1 EC30016 MITC95” value is 18.8 µM. Besides, in assay [2], the “IMP1 SM5741 MITC95” value is greater than 200 µM. In addition, the “VIM1 KP599644 MITC95” value in assay [3] stood at 37.5 µM.
For the compound `CC(=O)N1CCC(C[C@H](c2nnn[nH]2)[C@@H](C(=O)O)C(C)C)CC1` [Example 90, (2S,3S)-4-(1-acetylpiperidin-4-yl)-2-isopropyl-3-(1H-tetrazol-5-yl)butanoic acid], the values for the IC50 at IMP-1, on VIM-1 and on NDM-1 were 14000 nM, 310 nM and 200 nM, respectively. Moreover, the “NDM1 EC30016 MITC95” value in assay [1] is 62 µM. Further, in assay [2], the “IMP1 SM5741 MITC95” value is greater than 200 µM. Moreover, in assay [3], the “VIM1 KP599644 MITC95” value was determined as 200 µM.
